Assay results as given in patent US5563176A (priority 1994, dated 1996).
Converted amounts (≈) assume the structure as drawn. “And” between values parts separate entries of the source, which are not always exact repeats. Equal entries are not always repeated. Where two headings read alike, the source gives them in different places.

Tests used:
[1] = system: HL-60 cells; experiment: cells; assay type: cell-based, human
[2] = system: HL60 cells (myeloid); experiment: cells; assay type: cell-based, human; conditions: for IC50: Homo sapiens, HL-60, 2 h, read-out: Two hour IC50
[3] = system: 8392 cells (B-cell); experiment: cells; assay type: cell-based; conditions: 2 h, read-out: Two hour IC50
[4] = system: MV522 cells; experiment: cells; assay type: cell-based, human; conditions: for IC50: Homo sapiens, MV522, 2 h, read-out: Two hour IC50
[5] = system: HL60 cells; experiment: cells; assay type: cell-based; conditions: Homo sapiens, HL-60, 48 h, read-out: 48 hour IC50
[6] = system: 8392 cells; experiment: cells; assay type: cell-based; conditions: 48 h, read-out: 48 hour IC50
[7] = system: MV522; experiment: cells; assay type: cell-based; conditions: Homo sapiens, MV522, 48 h, read-out: 48 hour IC50
[8] = system: human lung adenocarcinoma MV522; conditions: in vivo
[9] = system: human lung adenocarcinoma MV522; experiment: animal or person; conditions: MV522, ip, read-out: life span
[10] = system: MX-1 mammary carcinoma xenograft; experiment: MX-1 human breast tumor xenograft in nude mice; assay type: in vivo
From the text: (§1) Nude mice are implanted subcutaneously (s.c.) by trocar with fragments of MX-1 mammary carcinomas harvested from s.c. growing MX-1 tumors in nude mice hosts. When tumors are approximately 5 mm×5 mm in size (usually about ten days after inoculation), the animals are pair-matched into treatment and control groups. Each group contains 10 tumored mice, each of which is eartagged and followed individually throughout the experiment. The administration of drugs or vehicle begins the day the animals are pair-matched (day 1). The doses, route of drug administration and schedule are selected as appropriate for the study in question, If the maximum tolerated dose (MTD) of an agent is not known, it was determined in an initial dosing experiment in non-tumored mice. In a typical experiment, drugs are given at their MTD and 1/2 MTD doses i.p. on a daily×5 schedule.
The experiment is usually terminated when control tumors reach a size of 2-3 g. Mice are weighed twice weekly, and tumor measurements are taken by calipers twice weekly, starting on day 1. These tumor measurements are converted to mg tumor weight by a well-known formula, and from these calculated tumor weights the termination date can be determined. Upon termination, all mice are weighed, sacrificed, and their tumors excised. Tumors, are weighed, and the mean tumor weight per group is calculated. In this model, the mean treated tumor weight/mean control tumor weight×100% (T/C) is subtracted from 100% to give the tumor growth inhibition (TGI) for each group).
Some drugs cause minor shrinkage in the MX-1 model. With these agents, the final weight of a given tumor is subtracted from its own weight at the start of treatment on day 1. This difference divided by the initial tumor weight is the % shrinkage. A mean % tumor shrinkage can be calculated from data from the mice in a group that experienced MX-1 regressions. If the tumor completely disappears in a mouse, this is considered a complete regression or complete tumor shrinkage.
(§2) HMAF was evaluated against the MX-1 mammary carcinoma xenograft at the MTD of 7.5 mg/kg, and also at 5.0 mg/kg, i.p. daily×5, delivered in 10% cremophor, 20% ethanol and 70% isotonic saline. The 7.5 mg mg/kg dose caused no lethality, or unacceptable weight loss to the nude mice (day 8 weight loss=9.5%). […] The 5.0 mg/kg dose produced 2 complete regressions, and an average 88% tumor shrinkage in the other 8 mice.

[11] = tolerability in nude mice (MX-1 study); assay type: in vivo
From the text: as §1, §2

[12] = system: P388 leukemia; experiment: P388 leukemia in mice; assay type: in vivo, murine
Procedure: (§3) HMAF was also evaluated against P388 leukemia in mice. The tumor inoculum is prepared by removing ascites fluid containing P388 cells from tumored B6D2F1 mice, centrifuging the cells, and then resuspending the leukemia cells in saline. Mice receive 1×10^6 P388 cells i.p. on day 0. Initial dosing experiments on a daily×5 schedule in B6D2F1 mice established the MTD of HMAF as 7.5 mg/kg. HMAF was tested at doses of 7.5 and 5.0 mg/kg vs. the P388 leukemia model. […] A T/C value of 150 means that treated mice lived 50% longer than the controls. Weight loss at the higher dose was 13% on day 8, again confirming that 7.5 mg/kg is the MTD for this agent on the daily×5 schedule.

[13] = dosing/tolerability in B6D2F1 mice; assay type: in vivo
Procedure: as §3

[14] = system: B16 melanoma; experiment: B16 melanoma in mice; assay type: in vivo; conditions: same doses as P388
[15] = system: B16 melanoma; experiment: in vitro activity, B16; assay type: cell-based
[16] = system: HT-29 human colon tumor; experiment: in vitro activity, HT-29; assay type: cell-based; conditions: HT-29, HT29
[17] = system: murine P388 cells; experiment: in vitro activity, P388; assay type: cell-based
[18] = system: MCF-7 human breast tumor; experiment: in vitro activity, MCF-7; assay type: cell-based
[19] = kinetics of the reaction with dilute HCl; assay type: physicochemical; conditions: illudin M
From the text: Consistent with the above hypothesis are the results of the kinetics of the reaction of illudin M and dehydroilludin M with dilute HCl. […] In the reaction with dehydroilludin M, no intermediate could be detected by NMR spectroscopy. Presumably it formed too slowly and is too short-lived to be detected.

[20] = system: Dunning leukemia; conditions: NCI DCT; cited from earlier work
[21] = system: HL60/MRI cells (human myeloid leukemia tumor cells); conditions: in vivo, iv

## CC1=Cc2cc(C)c(C)c(C)c2C1=O [2,5,6,7-tetramethyl-1-indenone, 2,5,6,7-Tetramethyl-1-Indenone]
[1]; Homo sapiens, HL-60
  IC50: 475 nM

## CC1=C(Cc2ccc(O)cc2)C2=C(C)C3(CC3)[C@@](C)(O)C(=O)C2=C1 [6-(p-hydroxybenzyl)acylfulvene, 6-(p-Hydroxybenzyl)acylfulvene]
[2]
  IC50: 264 ± 38 nM
[3]
  IC50: 95200 nM
[4]
  IC50: 1180 nM
[5]
  IC50: 382 ± 39 nM
[6]
  IC50: 11100 nM
[7]
  IC50: 615 ± 56 nM
[8]
  efficacy in this model: effective in this model
[9]
  response vs control in vivo at 15 mg/kg: 125 ± 16%
  response vs control in vivo at 20 mg/kg: 126 ± 22%

## COc1ccc(CC2=C(C)C=C3C(=O)[C@](C)(O)C4(CC4)C(C)=C32)cc1 [6-(p-methoxybenzyl)acylfulvene]
[2]
  IC50: 1960 nM
[3]
  IC50: 35700 nM
[4]
  IC50: 2040 nM
[5]
  IC50: 1050 nM
[6]
  IC50: 7140 nM
[7]
  IC50: 1550 nM

## CC(=O)OCC1=C(C)C=C2C(=O)[C@](C)(O)C3(CC3)C(C)=C21 [6-acetoxymethylacylfulvene]
[2]
  IC50: 3330 nM
[3]
  IC50: 47500 nM
[4]
  IC50: 1070 nM
[5]
  IC50: 806 ± 30 nM
[6]
  IC50: 4430 nM
[7]
  IC50: 486 ± 42 nM

## CC1=C(Br)C2=C(C)C3(CC3)[C@@](C)(O)C(=O)C2=C1 [6-bromoacylfulvene, 6-Bromoacylfulvene]
[2]
  toxicity to target tumor cells: markedly toxic
  IC50: 803 ± 88 nM
[4]
  toxicity to target tumor cells: markedly toxic
  IC50: 4180 nM
[5]
  IC50: 412 ± 21 nM
[6]
  IC50: 1190 nM
[7]
  IC50: 356 ± 61 nM
[8]
  efficacy in this model: effective in this model

## CC1=C(CO)C2=C(C)C3(CC3)[C@@](C)(O)C(=O)C2=C1 [6-hydroxymethylacylfulvene]
[2]
  toxicity to target tumor cells: markedly toxic
  IC50: 150 ± 11 nM
[3]
  IC50: 7360 nM
[4]
  IC50: 114 ± 28 nM
[4]; MV522, 2 and 48 hour
  toxicity to target tumor cells: markedly toxic
[5]
  IC50: 4 ± 1 nM
[6]
  IC50: 76 ± 4 nM
[7]
  IC50: 73 ± 8 nM
[10]; 5.0 mg/kg i.p. daily×5, of 10 mice
  complete regressions: 2
[10]; 5.0 mg/kg i.p. daily×5, other 8 mice
  average tumor shrinkage: 88%
[10]; 7.5 mg/kg i.p. daily×5, of 10 mice
  complete tumor regressions: 4 mice
[10]; 7.5 mg/kg i.p. daily×5, other 6 mice
  average tumor shrinkage: 91%
[10]; in vivo
  activity in MX-1 xenograft: highly active
[11]; 7.5 mg/kg i.p. daily×5
  lethality: no lethality
[11]; 7.5 mg/kg i.p. daily×5, day 8
  weight loss: 9.5%
[11]; mouse, in vivo, ip, i.p. daily×5, nude mice
  MTD: 7.5 mg/kg
[12]; 5.9 mg/kg
  treated/control (T/C): 137
[12]; 6.5 mg/kg
  treated/control (T/C): 140
[13]; higher dose, day 8, P388 study
  weight loss: 13%
[13]; mouse, in vivo, daily×5, B6D2F1 mice
  MTD: 7.5 mg/kg
[14]
  activity against B16 melanoma in mice: inactive
[15]; B16, listed as HMAF
  IC50: 4.65 µg/mL and 3.73 µg/mL
[15]; Mus musculus, B16, B16, read-out: IC50
  IC50: 3.73 to 4.65 µg/mL (≈ 15.1 to 18.9 µM)
[16]
  IC50: 0.05 µg/mL (≈ 0.203 µM)
[17]; Mus musculus, P388, P388, read-out: IC50
  IC50: 0.16 to 0.32 µg/mL (≈ 0.65 to 1.3 µM)
[17]; P388, listed as HMAF
  IC50: 0.165 µg/mL and 0.319 µg/mL
[18]; Homo sapiens, MCF7, MCF-7, read-out: IC50
  IC50: 0.036 to 0.07 µg/mL (≈ 0.146 to 0.284 µM)
[18]; MCF-7, listed as HMAF
  IC50: 0.036 µg/mL and 0.043 µg/mL
[8]
  efficacy in this model: markedly increased the life span
  life span versus control: lived significantly longer
  toxic side effects (activity, weight gain, food or water intake): no evidence of toxic side effects
[8]; 10 mg/kg
  tumor growth response: Tumor regression
[8]; ip, 10 mg/kg
  animals alive: 2 animals alive, ? cured
  life span: 233 ± 18% and 232 ± 20% and > 204%
[9]
  response vs control in vivo at 1 mg/kg: 135 ± 10%
  response vs control in vivo at 5 mg/kg: 154 ± 13%

## CC1=C(I)C2=C(C)C3(CC3)[C@@](C)(O)C(=O)C2=C1 [6-iodoacylfulvene, 6-Iodoacylfulvene]
[2]
  toxicity to target tumor cells: markedly toxic
  IC50: 2600 nM
[3]
  IC50: 10300 nM
[4]
  toxicity to target tumor cells: markedly toxic
  IC50: 956 ± 152 nM
[5]
  IC50: 290 ± 12 nM
[6]
  IC50: 1700 nM
[7]
  IC50: 556 ± 47 nM
[9]
  response vs control in vivo at 20 mg/kg: 120 ± 34%

## COc1cccc2c1C(=O)c1c(O)c3c(c(O)c1C2=O)C[C@@](O)(C(=O)CO)C[C@@H]3O[C@H]1C[C@H](N)[C@H](O)[C@H](C)O1 [Adriamycin]
[8]
  life span versus control: no significant increase in the life span
[8]; ip, 2.6 mg/kg
  life span: 98 ± 12% and 150 ± 25%

## C[C@@]1(CO)[C@H](O)CC[C@@]2(C)[C@H]1CC[C@H]1C[C@@H]3C[C@@]12CC[C@]3(O)CO [Aphidocolin]
[1]; read-out: IC50
  IC50: 2100 nM

## O=NN(CCCl)C(=O)NCCCl [BCNU]
[1]; Homo sapiens, HL-60
  IC50: 23300 nM

## CC1=C2C(=CC(C)(C)C2O)C(=O)[C@](C)(O)C12CC2 (stereo partly drawn) [Illudin M, reference compound]
[1]; Homo sapiens, HL-60
  IC50: 10 nM
[19]
  half-life: 2.47 h
  k, pseudo first-order reaction: 4.7×10^-3
[20]
  life span of rats with Dunning leukemia: significantly increased the life span

## CC1=CC2=C(C)C3(CC3)[C@@](C)(O)C(=O)C2=C1 [Illudofulvene]
[2]
  IC50: 998 ± 244 nM
[3]
  IC50: 66.4 nM
[4]
  IC50: 727 ± 180 nM
[1]; Homo sapiens, HL-60
  IC50: 500 nM
[5]
  IC50: 364 ± 74 nM
[6]
  IC50: 833 ± 152 nM
[7]
  IC50: 349 ± 23 nM
[21]
  adverse effects (food or water intake, body weight): did not display any evidence of adverse effect
  inhibition of tumor growth: effective at inhibiting tumor growth

## Cc1cc2c(c(C)c1CCO)C(=O)[C@@H](C)[C@@H]2O [Pterosin C]
[1]; read-out: IC50
  IC50: 12500 nM

## CO[C@@]12[C@H](COC(N)=O)C3=C(C(=O)C(C)=C(N)C3=O)N1C[C@@H]1N[C@@H]12 [mitomycin C]
[8]
  life span versus control: no significant increase in the life span
[8]; ip, 2.4 mg/kg
  life span: 111 ± 2% and 149 ± 12%

## CC(=O)O[C@H]1C(=O)[C@@]2(C)[C@H]([C@H](OC(=O)c3ccccc3)[C@]3(O)C[C@H](OC(=O)[C@H](O)[C@@H](NC(=O)c4ccccc4)c4ccccc4)C(C)=C1C3(C)C)[C@]1(OC(C)=O)CO[C@@H]1C[C@@H]2O [taxol]
[8]
  life span versus control: no significant increase in the life span
  tumor growth response: failed to inhibit tumor growth
[8]; ip, 4 mg/kg
  life span: 120 ± 10%
[8]; ip, 6 mg/kg
  drug toxicity: drug toxicity was now killing the animals
[9]
  response vs control in vivo at 4 mg/kg: 100 ± 10%
  response vs control in vivo at 6 mg/kg: 93 ± 22%
  response vs control in vivo at 20 mg/kg: 113 ± 22%
